Data from the NIST ThermoML archive (doi:10.1021/je201334p).

What was measured:
[1] = xn = mol fraction of the nth substance listed; conditions: 101 kPa, Liquid; for speed of sound: Sing-around technique in a fixed-path interferometer; for mass density: Vibrating tube method
[2] = refractive index (Na D-line) (dimensionless); xn = mol fraction of the nth substance listed; conditions: 101 kPa, Liquid, Standard Abbe refractometry

COS(=O)(=O)[O-].C[n+]1ccccc1 [1-methylpyridinium methylsulfate] + O
Conditions | mass density, 288.15 K [kg/m3] | mass density, 298.15 K [kg/m3] | mass density, 308.15 K [kg/m3] | refractive index, 288.15 K | refractive index, 298.15 K | refractive index, 308.15 K | speed of sound, 288.15 K [m/s] | speed of sound, 298.15 K [m/s] | speed of sound, 308.15 K [m/s]
[1], x2 = 0 | 1352.86 | 1346.12 | 1339.37 | – | – | – | 1901.1 | 1875.8 | 1852.4
[1], x2 = 0.0574 | 1350.36 | 1343.61 | 1336.86 | – | – | – | 1900.5 | 1876 | 1852.3
[1], x2 = 0.073 | 1349.61 | 1342.85 | 1336.11 | – | – | – | 1901.4 | 1876.4 | 1852.7
[1], x2 = 0.1111 | 1347.74 | 1340.98 | 1334.23 | – | – | – | 1901.9 | 1877.4 | 1853.7
[1], x2 = 0.1927 | 1343.32 | 1336.56 | 1329.82 | – | – | – | 1903.2 | 1879.2 | 1855.8
[1], x2 = 0.2941 | 1336.61 | 1329.85 | 1323.12 | – | – | – | 1906.5 | 1882.6 | 1859.2
[1], x2 = 0.4005 | 1327.54 | 1320.8 | 1314.09 | – | – | – | 1909.5 | 1886.2 | 1863.4
[1], x2 = 0.4996 | 1316.5 | 1309.79 | 1303.09 | – | – | – | 1912.2 | 1889.5 | 1867
[1], x2 = 0.6077 | 1299.41 | 1292.74 | 1286.07 | – | – | – | 1913.2 | 1891 | 1868.9
[1], x2 = 0.7064 | 1276.09 | 1269.51 | 1262.91 | – | – | – | 1906.8 | 1885.4 | 1863.4
[1], x2 = 0.8058 | 1237.51 | 1231.17 | 1224.76 | – | – | – | 1878 | 1859.2 | 1837.7
[1], x2 = 0.901 | 1168.89 | 1163.31 | 1157.51 | – | – | – | 1782.3 | 1772.7 | 1760.4
[1], x2 = 0.9497 | 1107.24 | 1102.67 | 1097.68 | – | – | – | 1670.4 | 1673.5 | 1673.4
[1], x2 = 0.9645 | 1081.91 | 1077.85 | 1073.27 | – | – | – | 1622.5 | 1633.3 | 1637.2
[2], x2 = 0 | – | – | – | 1.51603 | 1.5134 | 1.51077 | – | – | –
[2], x2 = 0.0574 | – | – | – | 1.51462 | 1.51199 | 1.50937 | – | – | –
[2], x2 = 0.073 | – | – | – | 1.51423 | 1.51159 | 1.50895 | – | – | –
[2], x2 = 0.1111 | – | – | – | 1.51315 | 1.51052 | 1.50794 | – | – | –
[2], x2 = 0.1927 | – | – | – | 1.51059 | 1.50803 | 1.50539 | – | – | –
[2], x2 = 0.2941 | – | – | – | 1.50679 | 1.50426 | 1.5017 | – | – | –
[2], x2 = 0.4005 | – | – | – | 1.50177 | 1.49921 | 1.49665 | – | – | –
[2], x2 = 0.4996 | – | – | – | 1.49567 | 1.49314 | 1.49057 | – | – | –
[2], x2 = 0.6077 | – | – | – | 1.48632 | 1.48384 | 1.48134 | – | – | –
[2], x2 = 0.7064 | – | – | – | 1.47388 | 1.47142 | 1.46886 | – | – | –
[2], x2 = 0.8058 | – | – | – | 1.45378 | 1.45141 | 1.44897 | – | – | –
[2], x2 = 0.901 | – | – | – | 1.41884 | 1.4167 | 1.41447 | – | – | –
[2], x2 = 0.9497 | – | – | – | 1.38778 | 1.38593 | 1.38397 | – | – | –
[2], x2 = 0.9645 | – | – | – | 1.37506 | 1.37336 | 1.37158 | – | – | –

CCCC[N+]1(C)CCCC1.O=S(=O)([O-])C(F)(F)F [1-butyl-1-methylpyrrolidinium trifluoromethanesulfonate] + O
Conditions | mass density, 288.15 K [kg/m3] | mass density, 298.15 K [kg/m3] | mass density, 308.15 K [kg/m3] | refractive index, 288.15 K | refractive index, 298.15 K | refractive index, 308.15 K | speed of sound, 288.15 K [m/s] | speed of sound, 298.15 K [m/s] | speed of sound, 308.15 K [m/s]
[1], x2 = 0 | 1260.33 | 1252.98 | 1245.78 | – | – | – | 1484.6 | 1460.1 | 1436.7
[1], x2 = 0.0559 | 1259.04 | 1251.78 | 1244.55 | – | – | – | 1486.9 | 1462.7 | 1439.7
[1], x2 = 0.1084 | 1257.8 | 1250.57 | 1243.3 | – | – | – | 1489.1 | 1464.9 | 1441.5
[1], x2 = 0.2076 | 1255.12 | 1247.82 | 1240.51 | – | – | – | 1494.5 | 1470.5 | 1447.2
[1], x2 = 0.2997 | 1252.05 | 1244.68 | 1237.3 | – | – | – | 1500.7 | 1476.9 | 1453.6
[1], x2 = 0.408 | 1247.41 | 1239.95 | 1232.47 | – | – | – | 1509.8 | 1486.1 | 1462.8
[1], x2 = 0.5038 | 1241.91 | 1234.36 | 1226.79 | – | – | – | 1520.1 | 1496.5 | 1473.2
[1], x2 = 0.6003 | 1234.21 | 1226.56 | 1218.89 | – | – | – | 1533.3 | 1510 | 1486.7
[1], x2 = 0.7052 | 1221.39 | 1213.67 | 1205.88 | – | – | – | 1552.3 | 1529.6 | 1506.6
[1], x2 = 0.8095 | 1198.77 | 1191.13 | 1183.37 | – | – | – | 1576.2 | 1555.8 | 1534.6
[1], x2 = 0.9018 | 1155.9 | 1148.95 | 1141.73 | – | – | – | 1595.4 | 1582.1 | 1566.6
[1], x2 = 0.9533 | 1104.38 | 1098.73 | 1092.63 | – | – | – | 1592.8 | 1589.4 | 1582.8
[2], x2 = 0 | – | – | – | 1.43557 | 1.43289 | 1.43018 | – | – | –
[2], x2 = 0.0559 | – | – | – | 1.43506 | 1.4324 | 1.4297 | – | – | –
[2], x2 = 0.1084 | – | – | – | 1.43458 | 1.43187 | 1.42918 | – | – | –
[2], x2 = 0.2076 | – | – | – | 1.43345 | 1.43075 | 1.42808 | – | – | –
[2], x2 = 0.2997 | – | – | – | 1.43221 | 1.42951 | 1.42683 | – | – | –
[2], x2 = 0.408 | – | – | – | 1.43031 | 1.42762 | 1.4249 | – | – | –
[2], x2 = 0.5038 | – | – | – | 1.42809 | 1.42536 | 1.42262 | – | – | –
[2], x2 = 0.6003 | – | – | – | 1.42501 | 1.42221 | 1.41943 | – | – | –
[2], x2 = 0.7052 | – | – | – | 1.41987 | 1.41708 | 1.4143 | – | – | –
[2], x2 = 0.8095 | – | – | – | 1.41085 | 1.40814 | 1.40557 | – | – | –
[2], x2 = 0.9018 | – | – | – | 1.39398 | 1.39161 | 1.38937 | – | – | –
[2], x2 = 0.9533 | – | – | – | 1.37399 | 1.3721 | 1.37023 | – | – | –
